Results taken from patent US4863949A, “Aminopropanol derivatives, processes for the preparation thereof, the use thereof and pharmaceutical compositions containing them” (Boehringer Mannheim GmbH, priority 1985, dated 1989).
Where a name gives a salt, the structure may show the parent alone.

Test system: livers
Test: denitration rate in perfused rat livers relative to isosorbide-5-mononitrate (nitrate-like action)
Set-up: species or system rats
Conditions: rat livers perfused 4 min, equimolar 5×10^-5 M/l; freed NO2 in perfusate; high = fast denitration

SMILES	Vrel (denitration rate in relation to isosorbide-5-mononitrate)
O=C(CCCO[N+](=O)[O-])NCCNCC(O)COc1cccc2[nH]ccc12 (stereo not shown) [2 (11.), 1-indol-4-yloxy)-3-[2-(4-nitroxybutanoylamino)-ethylamino]-propan-2-ol hemifumarate]	0,95
O=C(CCCO[N+](=O)[O-])NCCNCC(O)COc1cccc2c1CC(=O)N2.O=C(O)/C=C/C(=O)O (stereo not shown) [2 (17.), 3-[2-(4-nitroxybutanoylamino)-ethylamino]-1-(2-oxoindolin-4-yloxy)-propan-2-ol fumarate]	0,75
CC(CCC(=O)NCCNCC(O)COc1cccc2c1CC(=O)N2)O[N+](=O)[O-] (stereo not shown) [2 (29.), 3-[2-(4-nitroxypentanoylamino)-ethylamino]-1-(2-oxoindolin-4-yloxy)-propan-2-ol cyclamate]	0,86
O=C(CCCCO[N+](=O)[O-])NCCNCC(O)COc1cccc2c1CC(=O)N2 (stereo not shown) [2 (31.), 3-[2-(5-nitroxypentanoylamino)-ethylamino]-1-(2-oxoindolin-4-yloxy)-propan-2-ol hemifumarate]	0,66
Cc1ccc(Cl)c(OCC(O)CNC(C)(C)CNC(=O)CCCO[N+](=O)[O-])c1 (stereo not shown) [2 (46.), 1-(2-chloro-5-methylphenoxy)-3-[1,1-dimethyl-2-(4-nitroxybutanoylamino)-ethylamino]-propan-2-ol cyclamate]	0,97
CC(C)(CNC(=O)CCCO[N+](=O)[O-])NCC(O)COc1ccccc1C#N.O=C(O)/C=C/C(=O)O (stereo not shown) [2 (48.), 1-(2-cyanophenoxy)-3-[1,1-dimethyl-2-(4-nitroxybutanoylamino)-ethylamino]-propan-2-ol fumarate]	0,94
C=CCc1ccccc1OCC(O)CNC(C)(C)CNC(=O)CCCO[N+](=O)[O-] (stereo not shown) [2 (72.), 1-(2-allylphenoxy)-3-[1,1-dimethyl-2-(4-nitroxybutanoylamino)-ethylamino]-propan-2-ol cyclamate]	0,54
CC(=O)Oc1c(C)cc(OCC(O)CNC(C)(C)CNC(=O)CCCO[N+](=O)[O-])c(C)c1C.O=C(O)/C=C/C(=O)O (stereo not shown) [8 (15.), 3-[1,1-dimethyl-2-(4-nitroxybutanoylamino)-ethylamino]-1-(4-methylcarbonyloxy-2,3,5-trimethylphenoxy)-propan-2-ol fumarate]	1,19
Cn1cnc2cccc(OCC(O)CNC(C)(C)CNC(=O)O[C@H]3CO[C@H]4[C@@H]3OC[C@H]4O[N+](=O)[O-])c21 (stereo partly shown) [Example 11, 3-[1,1-Dimethyl-2-[(5-O-nitroisosorbid-2-yloxy)-carbonylamino]-ethylamino]-1-(3-methylbenzimidazol-4-yloxy)-propan-2-ol fumarate]	1,23
O=[N+]([O-])O[C@@H]1CO[C@H]2[C@@H]1OC[C@@H]2O [Isosorbide-5-mononitrate, isosorbide-5-mononitrate, reference compound]	0,86
